Assays:
Type in all cases: in vivo
[1] = tested on: Lambsquarters; assay: Postemergence herbicidal activity, % control of plant growth; conditions: Chenopodium album, post-emergence, 264 h, 8 lb/acre, about 11 days
Description: (§1) By the term "postemergence" is meant that the compound is applied to the plant sought to be controlled after it has emerged from the soil surface. This term is also used to describe the application of herbicidally active compounds to soil surface in and around growing plants sought to be controlled for purposes of effecting root absorption by the undesirable plant species.
(§2) In the postemergence test the soil and developing plants were sprayed approximately 2 weeks after the seeds were sown. The compound was applied at the rate of 8 pounds per acre from about a 2 percent by weight solution of the test compound in acetone and/or alcohol. The postemergence herbicidal activity was measured in the same way as the preemergence activity; i.e. visual observation approximately 11 days after spraying, and expressed as the percent control of plant growth.
(§3) **Postemergence test: compound applied at rate of 8 lb/acre

[2] = tested on: Snapbeans; assay: as above; conditions: post-emergence, 264 h, 8 lb/acre, about 11 days
Description: as §1, §2, §3

[3] = tested on: Corn; assay: as above; conditions: Zea mays, post-emergence, 264 h, 8 lb/acre, about 11 days
Description: as §1, §2, §3

[4] = tested on: Cucumber; assay: as above; conditions: Cucumis sativus, post-emergence, 264 h, 8 lb/acre, about 11 days
Description: as §1, §2, §3

[5] = tested on: Foxtail; assay: as above; conditions: Setaria, post-emergence, 264 h, 8 lb/acre, about 11 days
Description: as §1, §2, §3

[6] = tested on: Barnyard Grass; assay: as above; conditions: Echinochloa crus-galli, post-emergence, 264 h, 8 lb/acre, about 11 days
Description: as §1, §2, §3

[7] = tested on: Crabgrass; assay: as above; conditions: Digitaria sanguinalis, post-emergence, 264 h, 8 lb/acre, about 11 days
Description: as §1, §2, §3

[8] = tested on: Nutgrass; assay: as above; conditions: post-emergence, 264 h, 8 lb/acre, about 11 days
Description: as §1, §2, §3

[9] = tested on: Velvetleaf; assay: as above; conditions: Abutilon theophrasti, post-emergence, 264 h, 8 lb/acre, about 11 days
Description: as §1, §2, §3

[10] = tested on: Johnsongrass; assay: as above; conditions: Sorghum halepense, post-emergence, 264 h, 8 lb/acre, about 11 days
Description: as §1, §2, §3

[11] = tested on: Chickweed; assay: as above; conditions: post-emergence, 264 h, 8 lb/acre, about 11 days
Description: as §1, §2, §3

[12] = tested on: Pigweed; assay: as above; conditions: Amaranthus retroflexus, post-emergence, 264 h, 8 lb/acre, about 11 days
Description: as §1, §2, §3

[13] = tested on: Cheatgrass; assay: as above; conditions: Bromus tectorum, post-emergence, 264 h, 8 lb/acre, about 11 days
Description: as §1, §2, §3

[14] = tested on: Wild Oats; assay: as above; conditions: Avena fatua, post-emergence, 264 h, 8 lb/acre, about 11 days
Description: as §1, §2, §3

[15] = tested on: Alfalfa; assay: as above; conditions: Medicago sativa, post-emergence, 264 h, 8 lb/acre, about 11 days
Description: as §1, §2, §3

[16] = tested on: Yellow Rocket; assay: as above; conditions: post-emergence, 264 h, 8 lb/acre, about 11 days
Description: as §1, §2, §3

[17] = tested on: Curled Dock; assay: as above; conditions: post-emergence, 264 h, 8 lb/acre, about 11 days
Description: as §1, §2, §3

[18] = tested on: Lambsquarters; assay: Preemergence herbicidal activity, % control of plant growth; conditions: for pest or weed control at 17933.6 g/ha: Chenopodium album, pre-emergence, 504 h, 16 lb/acre, about 3 weeks
Description: (§4) By "preemergence" is meant that the compound is applied to the soil prior to emergence of the weed species sought to be controlled. This term, as used herein, also means the application of the herbicidal compounds falling within the scope of this disclosure to areas wherein useful or desirable plants are either growing or have been sown, but where the undesirable plants sought to be controlled have not as yet emerged.
(§5) In using the compound, seeds of the types of plants set forth in Table II were sown in fresh soil. In the preemergence test the soil was sprayed with a solution of the test compound immediately after the seeds were planted, and before any noticeable growth developed. The solution was about a 2 percent by weight solution of the compound in acetone and/or alcohol. The compound was applied at the rate of 16 pounds per acre of soil surface.
(§6) Approximately 3 weeks after spray application, the herbicidal activity of the compound was determined by visual observation of the treated area in comparison with untreated control areas. These observations are reported below in Table II wherein the average activity rating is reported as the percent control of plant growth.
(§7) *Preemergence test: compound applied at rate of 16 lb/acre

[19] = tested on: Snapbeans; assay: as above; conditions: for pest or weed control at 17933.6 g/ha: pre-emergence, 504 h, 16 lb/acre, about 3 weeks
Description: as §4, §5, §6, §7

[20] = tested on: Corn; assay: as above; conditions: for plant injury at 17933.6 g/ha: Zea mays, pre-emergence, 504 h, 16 lb/acre, about 3 weeks
Description: as §4, §5, §6, §7

[21] = tested on: Cucumber; assay: as above; conditions: for pest or weed control at 17933.6 g/ha: Cucumis sativus, pre-emergence, 504 h, 16 lb/acre, about 3 weeks
Description: as §4, §5, §6, §7

[22] = tested on: Foxtail; assay: as above; conditions: Setaria, pre-emergence, 504 h, 16 lb/acre, about 3 weeks
Description: as §4, §5, §6, §7

[23] = tested on: Barnyard Grass; assay: as above; conditions: Echinochloa crus-galli, pre-emergence, 504 h; barnyard grass; 16 lb/acre; about 3 weeks
Description: as §4, §5, §6, §7

[24] = tested on: Crabgrass; assay: as above; conditions: for pest or weed control at 17933.6 g/ha: Digitaria sanguinalis, pre-emergence, 504 h, 16 lb/acre, about 3 weeks
Description: as §4, §5, §6, §7

[25] = tested on: Nutgrass; assay: as above; conditions: pre-emergence, 504 h, 16 lb/acre, about 3 weeks
Description: as §4, §5, §6, §7

[26] = tested on: Velvetleaf; assay: as above; conditions: Abutilon theophrasti, pre-emergence, 504 h, 16 lb/acre, about 3 weeks
Description: as §4, §5, §6, §7

[27] = tested on: Johnsongrass; assay: as above; conditions: Sorghum halepense, pre-emergence, 504 h, 16 lb/acre, about 3 weeks
Description: as §4, §5, §6, §7

[28] = tested on: Chickweed; assay: as above; conditions: for pest or weed control at 17933.6 g/ha: pre-emergence, 504 h, 16 lb/acre, about 3 weeks
Description: as §4, §5, §6, §7

[29] = tested on: Pigweed; assay: as above; conditions: for pest or weed control at 17933.6 g/ha: Amaranthus retroflexus, pre-emergence, 504 h, 16 lb/acre, about 3 weeks
Description: as §4, §5, §6, §7

[30] = tested on: Cheatgrass; assay: as above; conditions: for pest or weed control at 17933.6 g/ha: Bromus tectorum, pre-emergence, 504 h, 16 lb/acre, about 3 weeks
Description: as §4, §5, §6, §7

[31] = tested on: Wild Oats; assay: as above; conditions: Avena fatua, pre-emergence, 504 h, 16 lb/acre, about 3 weeks
Description: as §4, §5, §6, §7

[32] = tested on: Alfalfa; assay: as above; conditions: for pest or weed control at 17933.6 g/ha: Medicago sativa, pre-emergence, 504 h, 16 lb/acre, about 3 weeks
Description: as §4, §5, §6, §7

[33] = tested on: Yellow Rocket; assay: as above; conditions: pre-emergence, 504 h, 16 lb/acre, about 3 weeks
Description: as §4, §5, §6, §7

[34] = tested on: Curled Dock; assay: as above; conditions: for pest or weed control at 17933.6 g/ha: pre-emergence, 504 h, 16 lb/acre, about 3 weeks
Description: as §4, §5, §6, §7

C=CCn1c(=O)[nH]c2cccnc2c1=O [3-allyl-pyrido[3,2-d]pyrimidine-2,4(1H,3H)-dione]
50%: plant injury at 17933.6 g/ha [20]
90%: pest or weed control at 17933.6 g/ha [22] | pest or weed control at 17933.6 g/ha [23] | pest or weed control at 17933.6 g/ha [26] | pest or weed control at 17933.6 g/ha [27]
100%: pest or weed control at 8966.8 g/ha [1] | pest or weed control at 8966.8 g/ha [2] | pest or weed control at 8966.8 g/ha [4] | pest or weed control at 8966.8 g/ha [5] | pest or weed control at 8966.8 g/ha [6] | pest or weed control at 8966.8 g/ha [7] | pest or weed control at 8966.8 g/ha [9] | pest or weed control at 8966.8 g/ha [10] | pest or weed control at 8966.8 g/ha [11] | pest or weed control at 8966.8 g/ha [12] | pest or weed control at 8966.8 g/ha [15] | pest or weed control at 8966.8 g/ha [16] | pest or weed control at 8966.8 g/ha [17] | pest or weed control at 17933.6 g/ha [18] | pest or weed control at 17933.6 g/ha [19] | pest or weed control at 17933.6 g/ha [21] | pest or weed control at 17933.6 g/ha [24] | pest or weed control at 17933.6 g/ha [28] | pest or weed control at 17933.6 g/ha [29] | pest or weed control at 17933.6 g/ha [30] | pest or weed control at 17933.6 g/ha [31] | pest or weed control at 17933.6 g/ha [32] | pest or weed control at 17933.6 g/ha [33] | pest or weed control at 17933.6 g/ha [34]
20%: pest or weed control at 8966.8 g/ha [14] | pest or weed control at 17933.6 g/ha [25]
30%: plant injury at 8966.8 g/ha [3] | pest or weed control at 8966.8 g/ha [8] | pest or weed control at 8966.8 g/ha [13]

O=c1[nH]c2cccnc2c(=O)n1Cc1ccccc1 [3-benzyl-pyrido[3,2-d]pyrimidine-[2,4(1H,3H)-dione]
90%: pest or weed control at 17933.6 g/ha [22] | pest or weed control at 17933.6 g/ha [23] | pest or weed control at 17933.6 g/ha [26] | pest or weed control at 17933.6 g/ha [27] | pest or weed control at 17933.6 g/ha [33]
30%: pest or weed control at 8966.8 g/ha [9] | pest or weed control at 17933.6 g/ha [31]
70%: pest or weed control at 8966.8 g/ha [16]
40%: pest or weed control at 8966.8 g/ha [7]
0%: pest or weed control at 8966.8 g/ha [2] | plant injury at 8966.8 g/ha [3] | pest or weed control at 8966.8 g/ha [5] | pest or weed control at 8966.8 g/ha [6] | pest or weed control at 8966.8 g/ha [8] | pest or weed control at 8966.8 g/ha [10] | pest or weed control at 8966.8 g/ha [13] | pest or weed control at 8966.8 g/ha [14] | pest or weed control at 8966.8 g/ha [15] | pest or weed control at 8966.8 g/ha [17] | pest or weed control at 17933.6 g/ha [21] | pest or weed control at 17933.6 g/ha [25]
60%: pest or weed control at 8966.8 g/ha [1]
100%: pest or weed control at 8966.8 g/ha [11] | pest or weed control at 8966.8 g/ha [12] | pest or weed control at 17933.6 g/ha [18] | pest or weed control at 17933.6 g/ha [24] | pest or weed control at 17933.6 g/ha [28] | pest or weed control at 17933.6 g/ha [29] | pest or weed control at 17933.6 g/ha [30] | pest or weed control at 17933.6 g/ha [32] | pest or weed control at 17933.6 g/ha [34]
10%: pest or weed control at 8966.8 g/ha [4] | pest or weed control at 17933.6 g/ha [19] | plant injury at 17933.6 g/ha [20]
total preemergence activity: herbicidal activity/control ([18]; 16 pounds per acre) | herbicidal activity/control ([24]; 16 pounds per acre) | herbicidal activity/control ([28]; 16 pounds per acre) | herbicidal activity/control ([29]; 16 pounds per acre) | herbicidal activity/control ([30]; 16 pounds per acre) | herbicidal activity/control ([32]; 16 pounds per acre) | herbicidal activity/control ([34]; 16 pounds per acre)
no preemergence herbicidal activity: herbicidal activity/control ([19]; 16 pounds per acre) | herbicidal activity/control ([20]; 16 pounds per acre) | herbicidal activity/control ([21]; 16 pounds per acre)

Reference: patent US3960877A, “N-monosubstituted-2,3-pyridinedicarboxamides, and related compounds” (priority 1974, dated 1976)
